Laboratory results from patent publication US9439432B2, “Phenylisoxazoline-based compound having herbicidal activity and use thereof” (MOGHU RESEARCH CENTER LTD, priority 2011, dated 2016).

Columns and labels:
Format in all cases: in vivo
[1] = system: Wheat; test: Pre-emergence treatment, phytotoxicity to wheat; conditions: 500 g/ha, 4 weeks after spraying, scale 0 to 10 (0: no effects, 10: complete death)
Protocol: (§1) A rectangular plastic pot having a surface area of 300 cm^2 was filled with sandy loam soil and mixed bed soil which were mixed at a ratio of 1:1, and then, barnyardrass (Echinochloa crusgalli), large crabgrass (Digitaria sanguinalis), blackgrass (Alopecurus myosuroides), and annual bluegrass (Poa annua), which are grass weeds, were seeded thereto. In a pot that was prepared as described above, seeds of corn, soybean, cotton, wheat, and rice were seeded. The pots were irrigated, and one day after, chemicals were sprayed thereto. The spraying was performed by using a track sprayer (R&D Sprayer, USA) equipped with a Teejet 8002 (Spraying Systems Co., USA) nozzle, and a spraying amount was adjusted at 300 L/ha. A spraying solution was prepared by dissolving test materials or references in acetone and adding the same amount of 0.2%(v/v) tween 20 aqueous solution thereto. Application rates were 500, 250, 125, and 62.5 g/ha. The pots were placed in a greenhouse in which during day, the temperature was maintained at a temperature of 25 to 30° C., and during night, the temperature was maintained at a temperature of 15 to 25° C., and the pots were periodically irrigated. Four weeks after the spraying the test materials or References, effects and phytotoxicity of the respective weeds and crops were evaluated in a scale of 0 to 10 (0: no effects, 10: complete death), and results thereof are shown in Table 4 below.

[2] = system: Alopecurus myosuroides; test: Pre-emergence treatment, herbicidal efficacy on blackgrass; conditions: 4 weeks after spraying, scale 0 to 10
Protocol: as §1

[3] = system: Corn; test: Pre-emergence treatment, phytotoxicity to corn; conditions: 500 g/ha, 4 weeks after spraying, scale 0 to 10 (0: no effects, 10: complete death)
Protocol: as §1

[4] = system: Poa annua; test: Pre-emergence treatment, herbicidal efficacy on annual bluegrass; conditions: 4 weeks after spraying, scale 0 to 10
Protocol: as §1

[5] = system: Soybean; test: Pre-emergence treatment, phytotoxicity to soybean; conditions: 500 g/ha, 4 weeks after spraying, scale 0 to 10 (0: no effects, 10: complete death)
Protocol: as §1

[6] = system: Rice; test: Pre-emergence treatment, phytotoxicity to rice; conditions: 500 g/ha, 4 weeks after spraying, scale 0 to 10 (0: no effects, 10: complete death)
Protocol: as §1

[7] = system: Cotton; test: Pre-emergence treatment, phytotoxicity to cotton; conditions: 500 g/ha, 4 weeks after spraying, scale 0 to 10 (0: no effects, 10: complete death)
Protocol: as §1

[8] = system: Echinochloa crusgalli; test: Pre-emergence treatment, herbicidal efficacy on barnyardgrass; conditions: 4 weeks after spraying
Protocol: as §1

[9] = system: Digitaria sanguinalis; test: Pre-emergence treatment, herbicidal efficacy on large crabgrass; conditions: 4 weeks after spraying, scale 0 to 10
Protocol: as §1

[10] = system: Rice; test: Post-emergence treatment, phytotoxicity to rice; conditions: post-emergence (about 3 leaf stage), 1,000 g/ha, 4 weeks after spraying, scale 0 to 10 (0: no effects, 10: complete death)
Protocol: as §1
(§2) Pots containing crops and weeds were prepared in the same manner as in Example 7, and then, in the second week in which crops and weeds entered into about 3 leaf stage, the test materials and the references were sprayed thereto in the same manner as described above. The rates were 1,000, 500, 250, and 125 g/ha. Four weeks after the spraying of the test materials or the references, herbicidal efficacy and phytotoxicity to the respective weeds and crops were evaluated in a scale of 0 to 10 (0: no effects, 10: complete death).

[11] = system: Soybean; test: Post-emergence treatment, phytotoxicity to soybean; conditions: post-emergence (about 3 leaf stage), 1,000 g/ha, 4 weeks after spraying, scale 0 to 10 (0: no effects, 10: complete death)
Protocol: as §1, §2

[12] = system: Cotton; test: Post-emergence treatment, phytotoxicity to cotton; conditions: post-emergence (about 3 leaf stage), 1,000 g/ha, 4 weeks after spraying, scale 0 to 10 (0: no effects, 10: complete death)
Protocol: as §1, §2

[13] = system: Echinochloa crusgalli; test: Post-emergence treatment, herbicidal efficacy on barnyardgrass; conditions: 4 weeks after spraying, scale 0 to 10
Protocol: as §1, §2

[14] = system: Digitaria sanguinalis; test: Post-emergence treatment, herbicidal efficacy on large crabgrass; conditions: 4 weeks after spraying, scale 0 to 10
Protocol: as §1, §2

[15] = system: Poa annua; test: Post-emergence treatment, herbicidal efficacy on annual bluegrass; conditions: 4 weeks after spraying, scale 0 to 10
Protocol: as §1, §2

[16] = system: Alopecurus myosuroides; test: Post-emergence treatment, herbicidal efficacy on blackgrass; conditions: 4 weeks after spraying, scale 0 to 10
Protocol: as §1, §2

[17] = system: Corn; test: Post-emergence treatment, phytotoxicity to corn; conditions: post-emergence (about 3 leaf stage), 1,000 g/ha, 4 weeks after spraying, scale 0 to 10 (0: no effects, 10: complete death)
Protocol: as §1, §2

[18] = system: Wheat; test: Post-emergence treatment, phytotoxicity to wheat; conditions: post-emergence (about 3 leaf stage), 1,000 g/ha, 4 weeks after spraying, scale 0 to 10 (0: no effects, 10: complete death)
Protocol: as §1, §2

[19] = 500 g/ha, scale 0 to 10 (0: no effects, 10: complete death)

CC1(COCc2c(F)cccc2F)CC(c2ccccc2Br)=NO1 (stereo not drawn) [Compound 3, 3-(2-bromophenyl)-5-((2,6-difluorobenzyloxy)methyl)-5-methyl-4,5-dihydroisoxazole]
4: Herbicidal efficacy, Alopecurus myosuroides ([2]; 62.5 g/ha) | Herbicidal efficacy, Alopecurus myosuroides ([2]; 125 g/ha) | Herbicidal efficacy, Poa annua ([4]; 62.5 g/ha)
5: Herbicidal efficacy, Alopecurus myosuroides ([2]; 250 g/ha)
10: Herbicidal efficacy, Poa annua ([4]; 500 g/ha) | Herbicidal efficacy, Echinochloa crusgalli ([8]; 62.5 g/ha, scale 0 to 10) | Herbicidal efficacy, Echinochloa crusgalli ([8]; 125 g/ha, scale 0 to 10) | Herbicidal efficacy, Echinochloa crusgalli ([8]; 250 g/ha, scale 0 to 10) | Herbicidal efficacy, Echinochloa crusgalli [8, 19] | Herbicidal efficacy, Digitaria sanguinalis ([9]; 62.5 g/ha) | Herbicidal efficacy, Digitaria sanguinalis ([9]; 125 g/ha) | Herbicidal efficacy, Digitaria sanguinalis ([9]; 250 g/ha) | Herbicidal efficacy, Digitaria sanguinalis ([9]; 500 g/ha)
0: Phytotoxicity, Wheat [1] | Phytotoxicity, Soybean [5] | Phytotoxicity, Rice [6] | Phytotoxicity, Cotton [7]
8: Herbicidal efficacy, Poa annua ([4]; 250 g/ha)
7: Herbicidal efficacy, Alopecurus myosuroides ([2]; 500 g/ha) | Herbicidal efficacy, Poa annua ([4]; 125 g/ha)
2: Phytotoxicity, Corn [3]

CC1(COCc2ccccc2F)CC(c2ccccc2[N+](=O)[O-])=NO1 (stereo not drawn) [Reference A]
4: Herbicidal efficacy, Digitaria sanguinalis ([14]; post-emergence, 500 g/ha)
3: Herbicidal efficacy, Alopecurus myosuroides ([2]; 250 g/ha) | Herbicidal efficacy, Poa annua ([15]; post-emergence, 500 g/ha)
2: Herbicidal efficacy, Echinochloa crusgalli ([13]; post-emergence, 250 g/ha) | Herbicidal efficacy, Poa annua ([4]; 125 g/ha) | Herbicidal efficacy, Alopecurus myosuroides ([16]; post-emergence, 1,000 g/ha) | Herbicidal efficacy, Echinochloa crusgalli ([8]; 125 g/ha, scale 0 to 10) | Herbicidal efficacy, Digitaria sanguinalis ([9]; 125 g/ha)
7: Herbicidal efficacy, Echinochloa crusgalli ([13]; post-emergence, 1,000 g/ha)
10: Herbicidal efficacy, Alopecurus myosuroides ([2]; 500 g/ha) | Herbicidal efficacy, Echinochloa crusgalli [8, 19] | Herbicidal efficacy, Digitaria sanguinalis ([9]; 500 g/ha)
6: Herbicidal efficacy, Echinochloa crusgalli ([8]; 250 g/ha, scale 0 to 10) | Herbicidal efficacy, Digitaria sanguinalis ([9]; 250 g/ha)
9: Herbicidal efficacy, Poa annua ([4]; 500 g/ha)
1: Phytotoxicity, Soybean [11] | Herbicidal efficacy, Digitaria sanguinalis ([14]; post-emergence, 250 g/ha)
5: Herbicidal efficacy, Echinochloa crusgalli ([13]; post-emergence, 500 g/ha) | Herbicidal efficacy, Digitaria sanguinalis ([14]; post-emergence, 1,000 g/ha) | Herbicidal efficacy, Poa annua ([4]; 250 g/ha) | Herbicidal efficacy, Poa annua ([15]; post-emergence, 1,000 g/ha)
0: Phytotoxicity, Rice [10] | Phytotoxicity, Wheat [1] | Phytotoxicity, Cotton [12] | Herbicidal efficacy, Echinochloa crusgalli ([13]; post-emergence, 125 g/ha) | Herbicidal efficacy, Digitaria sanguinalis ([14]; post-emergence, 125 g/ha) | Herbicidal efficacy, Alopecurus myosuroides ([2]; 62.5 g/ha) | Herbicidal efficacy, Alopecurus myosuroides ([2]; 125 g/ha) | Phytotoxicity, Corn [3] | Herbicidal efficacy, Poa annua ([4]; 62.5 g/ha) | Herbicidal efficacy, Poa annua ([15]; post-emergence, 125 g/ha) | Herbicidal efficacy, Poa annua ([15]; post-emergence, 250 g/ha) | Phytotoxicity, Soybean [5] | Herbicidal efficacy, Alopecurus myosuroides ([16]; post-emergence, 125 g/ha) | Herbicidal efficacy, Alopecurus myosuroides ([16]; post-emergence, 250 g/ha) | Herbicidal efficacy, Alopecurus myosuroides ([16]; post-emergence, 500 g/ha) | Phytotoxicity, Corn [17] | Phytotoxicity, Rice [6] | Phytotoxicity, Wheat [18] | Phytotoxicity, Cotton [7] | Herbicidal efficacy, Echinochloa crusgalli ([8]; 62.5 g/ha, scale 0 to 10) | Herbicidal efficacy, Digitaria sanguinalis ([9]; 62.5 g/ha)
